Inhibition data for 2 compounds are collected here from patent US4680293A, “3-imidazolylalkyl-, triazolylalkyl-, pyridinylalkyl-1,2,3-benzotriazin-4(3H)-ones and derivatives thereof” (American Cyanamid Company, priority 1986, dated 1987).

This experiment concerns the target T1, thromboxane synthetase (Rattus norvegicus, UniProt P49430).
T1 sequence (P49430 1-533): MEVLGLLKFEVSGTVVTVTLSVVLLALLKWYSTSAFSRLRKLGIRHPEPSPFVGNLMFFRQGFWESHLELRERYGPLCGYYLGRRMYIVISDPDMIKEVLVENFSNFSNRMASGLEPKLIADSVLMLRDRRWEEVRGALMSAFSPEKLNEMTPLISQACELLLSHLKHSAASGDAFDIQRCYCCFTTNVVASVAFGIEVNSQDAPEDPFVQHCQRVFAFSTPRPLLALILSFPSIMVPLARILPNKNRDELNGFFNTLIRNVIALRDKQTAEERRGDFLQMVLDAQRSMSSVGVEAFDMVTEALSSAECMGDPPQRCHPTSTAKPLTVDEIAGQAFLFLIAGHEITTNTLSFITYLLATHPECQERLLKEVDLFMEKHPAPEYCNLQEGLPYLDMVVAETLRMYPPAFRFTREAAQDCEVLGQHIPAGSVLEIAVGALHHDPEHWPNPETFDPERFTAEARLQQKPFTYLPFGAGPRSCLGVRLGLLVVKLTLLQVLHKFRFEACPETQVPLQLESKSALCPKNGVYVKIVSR
Kind of experiment: Inhibition of thromboxane formation in washed SHR platelets (TXB2 by direct radioimmunoassay). Particulars: read-out: % Inhibition (of TXB2 formation), drug at 10^-4 M, 10 minutes at 37° C.

Structures are written as SMILES.

Description: From Okamoto-Aoki spontaneously hypertensive rats (SHR) (Taconic Farms, Germantown, NY) between 19 and 24 weeks in age, under urethane anesthesia, 10 μl of arterial blood was collected in one ml of 3.2% sodium citrate in a polystyrene tube. The blood was diluted with 3 ml cold saline and centrifuged at room temperature for 15 minutes at 460×g. The platelet rich plasma (PRP) was separated. The platelets were isolated by centrifuging the PRP for 10 minutes at 1060×g and were washed in 4 ml cold oxygenated Krebs phosphate buffer, pH 7.4. The chilled platelets recovered from centrifuging at 800×g for 10 minutes were resuspended in oxygenated Krebs phosphate buffer and diluted to contain 4.5-6.0×10^4 platelets/μl.
The inhibition of thromboxane (TX) formation was studied by determining the concentration of thromboxane B2 (TXB2), the stable hydrolysis product of TXA2. Assay samples, prepared on ice, contained 200 μl platelet suspension, 50 μl saline, and 50 μl vehicle or drug under study at a concentration of 10^-4 M (with OKY-1581, UK-37248-01, 1-benzylimidazole, and/or indomethacin used as standards). […] The TXB2 content for each sample was determined by a direct radioimmunoassay (RIA) utilizing a TXB2 specific RIA kit purchased from New England Nuclear, Boston, MA and results expressed as pg TXB2 formed minute^-1 sample^- 1, from which the percent inhibition of TXB2 formation was calculated.

In the case of `O=c1c2cc(Cl)ccc2nnn1CCCCn1ccnc1`, the inhibition (as a rule, the share of the control response that was lost under treatment) at 100 µM stood at 79%.
The result for `CC(Cn1ccnc1)Cn1nnc2ccc(Cl)cc2c1=O` (centres unmarked) [6-Chloro-3-[3-(1H-imidazol-1-yl)-2-methylpropyl]-1,2,3-benzotriazin-4(3H)-one] reads 97%.
